# Test results from paper PMC8661032, “Broad-Spectrum Antibacterial Peptide Kills Extracellular and Intracellular Bacteria Without Affecting Epithelialization” (Frontiers in Microbiology, 2021).
# Residues, ends and D or L forms follow the SMILES beside them.
# Legend:
# A. baumannii = test: microbe, parasite or virus in culture; conditions: for MIC: Acinetobacter baumannii
# Description: (§1) Briefly, bacterial colonies from blood agar plates were suspended and grown in Cation-Adjusted Mueller-Hinton Broth (CAMHB, […] Ca^2+, […] Mg^2+). The bacterial suspension was adjusted to 0.5 McFarland standard (∼1 × 10^8 colony-forming units (CFU)/ml) and serial diluted 1:200 in CAMHB (∼5 × 10^5 CFU/mL). […] The suspension was plated out on blood agar plates to confirm the CFU/ml. Both the microtiter plates and the blood agar plates were incubated at 37°C for 24 h.
# P. aeruginosa = test: microbe, parasite or virus in culture; conditions: for MIC: Pseudomonas aeruginosa
# Description: as §1
# S. aureus = test: microbe, parasite or virus in culture; conditions: for MIC: CAMHB, 24 h, three independent experiments
# Description: as §1
# E. coli [1] = test: microbe, parasite or virus in culture; conditions: for MIC: Escherichia coli; for MIC E. coli: K-12 MG1655, CLSI broth microdilution, CAMHB, 37°C, visible growth, net peptide concentration
# Description: as §1
# K. pneumoniae = test: microbe, parasite or virus in culture; conditions: for MIC: Klebsiella pneumoniae
# Description: as §1
# [2] = tested on: S. epidermidis MRSE (SO-SEP9-1); conditions: SO-SEP9-1, 24 h
# Description: as §1
# E. coli [3] = test: Growth inhibition assay (OD600 over 24 h); type: cell-based, Escherichia coli; set-up: Reduction of viability E. coli (60 μg/ml): key to the marks not given beside the values; conditions: LB medium
# Description: An overnight culture of Escherichia coli was diluted 1:100 in Luria-Bertani (LB) medium and allowed to grow until an optical density (OD) at 600 nm (OD600) of 0.06–0.1. APIM-peptides were prepared by serial dilution in Milli-Q H2O and kept at 4°C. Fresh LB medium (60 μl) was added to a flat-bottom microtiter plate. The bacterial suspension was diluted 1:100 in LB, and 75 μl of this suspension was added to the wells. Finally, 15 μl of APIM-peptide solution (to final concentrations 60, 120, and 240 μg/ml) or distilled water (positive control) was added to the wells, reaching a total volume of 150 μl per well. Data are presented only for the dose that separated the effect of the different peptides, i.e., 60 μg/ml. A blank sterile medium was used as negative control. The plates were incubated with shaking at 510 rpm at 37°C inside a plate reader (TECAN, Spark®), and OD was read every hour over a period of 24 h.
# The MIC for E. coli in LB medium is higher than that in CAMHB; thus, concentrations higher than the MIC given in Table 2 are used in the growth inhibition and mutagenesis assays. […]
# E. coli. Growth of E. coli in LB medium over 24 hours (Optical Density (OD) 600 nm) after addition
# of APIM-peptide variants 1-5 (60 µg/mL) at time t=0 (see Table 2). Negative (-) control is no
# bacteria added, positive (+) control is untreated bacteria.
# highest inhibition of growth.
# control (black filled line).
# HEK293 cells = tested on: HEK293 cells
# Description: HEK293 cells (6,000 cells/well) were seeded in 96-well microtiter plates. After 4 h, APIM-peptides (12–48 μg/ml) were added, and the cells were incubated without change of media for up to 4 days. Viability was measured using the 3-(4,5-dimethylthiazol-2-yl)-2,5-diphenyltetrazolium bromide (MTT) assay as described ([Gilljam et al., 2009]).
# (1 picture or pasted object on this page, not shown here)
# E. coli [4] = test: Rifampicin (RifR) mutagenesis assay after UV-C; type: cell-based, Escherichia coli; conditions: for Reduction of mutation frequency E. coli (20 μg/ml): 20 μg/ml peptide, UV-C 20 mJ/cm^2, RifR assay, relative to untreated control
# Description: The rifampicin (Rif^R) mutagenesis assay was performed as described ([Nedal et al., 2020]). Briefly, an overnight culture of E. coli was diluted 1:1,000 and grown until an OD600 of 0.01. APIM-peptides (20 μg/ml) were added to LB media with glass beads (for uniform distribution of APIM-peptides) and incubated for 30 min at 37°C. The pellets were next collected, resuspended in 500 μl PBS, and exposed to UV-C (20 mJ/cm^2) in a six-well plate at 4°C. The unexposed bacteria (-UV) were otherwise handled exactly like the UV-exposed bacteria. Next, the cells were resuspended in LB media and incubated in a rotary shaker at 37°C at 250 rpm for 2 h before being harvested, diluted, and plated on LB with soft agar with and without rifampicin (100 μg/ml). Mutation frequency, Rif^R/10^8, is obtained as follows: (number of colonies on the rifampicin plate (Rif^R)/(number of colonies on LB plates without antibiotics), per milliliter of bacterial suspension. […]
# mutagenesis in E. coli more efficiently than the other peptide variants.
# Increase in mutation frequencies after treatment with UV-C (20 mJ/cm2) relative to spontaneous mutations frequencies using the RifR assay were determined. This increase is set to 100% for untreated control, and % reduction after addition of peptides 1-5 (20 μg/mL) are shown. Mean ± SD from three independent experiments. * p<0.05, ** p<0.005
# [5] = Staphylococcus aureus, ATCC29213, 24 h, Reference strain ATCC 29213
# [6] = Staphylococcus aureus, MRSA, Clinical isolate SO-SAU19-1 (MRSA)
# [7] = SO-ECO19-1 (ESBL-CARB-A(CTX-M-24)/D(OXA-48))
smiles,measurement,setting,value
"C[C@@H](O)[C@H]1C(=O)N2C(C(=O)O)=C(S[C@@H]3CN[C@H](C(=O)N(C)C)C3)[C@H](C)[C@H]12 [Meropenem, meropenem]",Combination effect with 0.5× MIC betatide,A. baumannii; ATCC 19606,None
same,MIC,A. baumannii; 24 h,512 µg/mL
same,MIC,"A. baumannii; ATCC19606, 24 h",4 µg/mL
same,Combination effect with 0.5× MIC betatide,A. baumannii; SO-ABA19-1 (ESBL-CARBA-D),None
same,Combination effect with 0.5× MIC betatide,P. aeruginosa; ATCC 27853,None
same,MIC,P. aeruginosa; 24 h,64 µg/mL
same,MIC,"P. aeruginosa; ATCC27853, 24 h",0.5 µg/mL
same,Combination effect with 0.5× MIC betatide,P. aeruginosa; SO-PAE19-1 (multidrug resistant),Additive 2×
"CCC[C@@H]1C[C@@H](C(=O)N[C@@H]([C@H]2O[C@H](SC)[C@H](O)[C@@H](O)[C@H]2O)[C@H](C)Cl)N(C)C1 [Clindamycin, clindamycin]",Combination effect with 0.5× MIC betatide,S. aureus; ATCC 29213,Additive 2×
same,Combination effect with 0.5× MIC betatide,S. aureus; SO-SAU19-1 (MRSA),Additive 2×
same,MIC,S. aureus; [5],0.25 µg/mL
same,MIC,S. aureus; [6],2050 µg/mL
"CO[C@@]1(NC(=O)Cc2cccs2)C(=O)N2C(C(=O)O)=C(COC(N)=O)CS[C@@H]21 [Cefoxitin, cefoxitin]",Combination effect with 0.5× MIC betatide,S. aureus; ATCC 29213,None
same,Combination effect with 0.5× MIC betatide,S. aureus; SO-SAU19-1 (MRSA),Additive 2×
same,MIC,S. aureus; [5],4 µg/mL
same,MIC,S. aureus; [6],32 µg/mL
"COc1cccc(OC)c1C(=O)N[C@@H]1C(=O)N2[C@@H]1SC(C)(C)[C@@H]2C(=O)O [Methicillin, methicillin]",Combination effect with 0.5× MIC betatide,S. aureus; ATCC 29213,Additive 2×
same,Combination effect with 0.5× MIC betatide,S. aureus; SO-SAU19-1 (MRSA),Additive 4×
same,MIC,S. aureus; [5],1 µg/mL
same,MIC,S. aureus; [6],8 µg/mL
"C[C@@H](O)[C@H]1C(=O)N2C(C(=O)O)=C(S[C@@H]3CN[C@H](C(=O)Nc4cccc(C(=O)O)c4)C3)[C@H](C)[C@H]12 [Ertapenem, ertapenem]",MIC,E. coli [1]; 24 h,64 µg/mL
same,MIC,"E. coli [1]; MG1655, 24 h",0.06 µg/mL
same,Combination effect with 0.5× MIC betatide,E. coli [1]; MG1655,None
same,Combination effect with 0.5× MIC betatide,E. coli [1]; [7],Additive 2×
same,Combination effect with 0.5× MIC betatide,K. pneumoniae; ATCC 13883,Additive 4×
same,MIC,K. pneumoniae; 24 h,32 µg/mL
same,MIC,"K. pneumoniae; ATCC13883, 24 h",0.03 µg/mL
same,Combination effect with 0.5× MIC betatide,K. pneumoniae; SO-KPN19-1 (ESBL-CARBA-D),Additive 2×
"CO/N=C(\C(=O)N[C@@H]1C(=O)N2C(C(=O)O)=C(CSc3nc(=O)c(=O)[nH]n3C)CS[C@H]12)c1csc(N)n1 [Ceftriaxone, ceftriaxone]",MIC,E. coli [1]; 24 h,1020 µg/mL
same,MIC,"E. coli [1]; MG1655, 24 h",0.06 µg/mL
same,Combination effect with 0.5× MIC betatide,E. coli [1]; MG1655,None
same,Combination effect with 0.5× MIC betatide,E. coli [1]; [7],Additive 4×
CC[C@H](C)[C@H](NC(=O)[C@H](CCCCN)NC(=O)[C@H](CCCNC(=N)N)NC(=O)[C@H](CCCCN)NC(=O)[C@H](CCCCN)NC(=O)[C@H](CCCCN)NC(=O)[C@H](Cc1c[nH]c2ccccc12)NC(=O)[C@H](CCCCN)NC(=O)[C@@H](NC(=O)[C@H](CC(C)C)NC(=O)[C@H](Cc1c[nH]c2ccccc12)NC(=O)[C@H](CCCNC(=N)N)NC(=O)[C@H](CC(=O)O)NC(=O)[C@H](CCSC)NC(C)=O)C(C)C)C(=O)N[C@@H](CCCNC(=N)N)C(=O)N[C@@H](CCCNC(=N)N)C(=O)N[C@@H](CCCNC(=N)N)C(=O)N[C@@H](CCCNC(=N)N)C(=O)N[C@@H](CCCNC(=N)N)C(=O)N[C@@H](CCCNC(=N)N)C(=O)N[C@@H](CCCNC(=N)N)C(=O)N[C@@H](CCCNC(=N)N)C(=O)N[C@@H](CCCNC(=N)N)C(=O)N[C@@H](CCCNC(=N)N)C(=O)N[C@@H](CCCNC(=N)N)C(N)=O [Peptide 1] (Ac-MDRWLVKWKKKRKIRRRRRRRRRRR-NH2),MIC S. epidermidis MRSE,[2],32 µg/mL
same,inhibition of growth of E. coli (OD 600 nm),"E. coli [3]; 60 µg/mL, over 24 hours, Supplementary Figure S1",least efficient
same,Reduction of viability HEK293 (24 μg/ml),HEK293 cells,+
same,Reduction of mutation frequency E. coli (20 μg/ml),E. coli [4],+
same,MIC E. coli,E. coli [1]; 24 h,32 µg/mL
CC[C@H](C)[C@H](NC(=O)CNC(=O)[C@H](CCCCN)NC(=O)[C@@H](NC(=O)[C@H](CC(C)C)NC(=O)[C@H](Cc1c[nH]c2ccccc12)NC(=O)[C@H](CCCNC(=N)N)NC(=O)[C@H](CC(=O)O)NC(=O)[C@H](CCSC)NC(C)=O)C(C)C)C(=O)N[C@@H](CC(C)C)C(=O)N[C@@H](CCC(N)=O)C(=O)N[C@@H](Cc1c[nH]c2ccccc12)C(=O)N[C@@H](CCCNC(=N)N)C(=O)N[C@@H](CCCCN)C(=O)N[C@H](C(=O)N[C@@H](CCCNC(=N)N)C(=O)N[C@@H](CCCNC(=N)N)C(=O)N[C@@H](CCCNC(=N)N)C(=O)N[C@@H](CCCNC(=N)N)C(=O)N[C@@H](CCCNC(=N)N)C(=O)N[C@@H](CCCNC(=N)N)C(=O)N[C@@H](CCCNC(=N)N)C(=O)N[C@@H](CCCNC(=N)N)C(=O)N[C@@H](CCCNC(=N)N)C(N)=O)[C@@H](C)CC [Peptide 4] (Ac-MDRWLVKGILQWRKIRRRRRRRRR-NH2),MIC S. epidermidis MRSE,[2],16 µg/mL
same,Reduction of viability E. coli (60 μg/ml),"E. coli [3]; 60 μg/ml peptide, OD600 every hour over 24 h, relative to untreated control",++
same,MIC E. coli,E. coli [1]; 24 h,32 µg/mL
CC[C@H](C)[C@H](NC(=O)CNC(=O)[C@H](CCCCN)NC(=O)[C@@H](NC(=O)[C@H](CC(C)C)NC(=O)[C@H](Cc1c[nH]c2ccccc12)NC(=O)[C@H](CCCNC(=N)N)NC(=O)[C@H](CC(=O)O)NC(=O)[C@H](CCSC)NC(C)=O)C(C)C)C(=O)N[C@@H](CC(C)C)C(=O)N[C@@H](CCC(N)=O)C(=O)N[C@@H](Cc1c[nH]c2ccccc12)C(=O)N[C@@H](CCCNC(=N)N)C(=O)N[C@@H](CCCCN)C(=O)N[C@H](C(=O)N[C@@H](CCCNC(=N)N)C(=O)N[C@@H](CCCNC(=N)N)C(=O)N[C@@H](CCCNC(=N)N)C(=O)N[C@@H](CCCNC(=N)N)C(=O)N[C@@H](CCCNC(=N)N)C(=O)N[C@@H](CCCNC(=N)N)C(=O)N[C@@H](CCCNC(=N)N)C(=O)N[C@@H](CCCNC(=N)N)C(=O)N[C@@H](CCCNC(=N)N)C(=O)N[C@@H](CCCNC(=N)N)C(N)=O)[C@@H](C)CC [Peptide 3] (Ac-MDRWLVKGILQWRKIRRRRRRRRRR-NH2),MIC S. epidermidis MRSE,[2],16 µg/mL
same,Reduction of viability HEK293 (24 μg/ml),HEK293 cells,+
same,UV-induced mutation frequencies relative to control,"E. coli [4]; 20 μg/mL, UV-C 20 mJ/cm2, RifR assay, three independent experiments",significantly reduced
same,Reduction of mutation frequency E. coli (20 μg/ml),E. coli [4],++
same,MIC E. coli,E. coli [1]; 24 h,32 µg/mL
"CC(=O)O[C@H]1C[C@@]2(C)[C@@H](C[C@@H](O)[C@H]3[C@@]4(C)CC[C@@H](O)[C@@H](C)[C@@H]4CC[C@@]32C)/C1=C(\CCC=C(C)C)C(=O)O [Fusidic acid, fusidic acid]",Combination effect with 0.5× MIC betatide,S. aureus; ATCC 29213,"Additive, 2×"
same,Combination effect with 0.5× MIC betatide,S. aureus; SO-SAU19-1 (MRSA),Additive 8×
same,Combination effect with 0.5× MIC betatide,S. aureus; SO-SAU 19-2 (FR-MRSA),Additive 2×
same,Combination effect with 0.5× MIC betatide,S. aureus; SO-SAU 19-3 (FR-MRSA),Additive 4×
same,Combination effect with 0.5× MIC betatide,S. aureus; SO-SAU 19-4 (FR-MRSA),Additive 2×
same,MIC,S. aureus; SO-SAU 19-4 (FR-MRSA),8 µg/mL
same,MIC,S. aureus; [5],0.25 µg/mL
same,MIC,S. aureus; [6],0.25 µg/mL
same,MIC,"S. aureus; Staphylococcus aureus, MRSA, SO-SAU 19-2 (FR-MRSA)",8 µg/mL
same,reduction in MIC of fusidic acid when combined with 0.5× MIC betatide,S. aureus; fusidic acid-sensitive MRSA strain,8 ×
